Experimental data published in US20160002204A1 (Board of Regents, The University of Texas System, priority 2014, published 2016).

Assays:
A549 cells = assay: A549 proliferation (viability) assay, Cell Titer Fluor, 72 hours; type: cell-based; details: Homo sapiens
Protocol: A549 cells were routinely maintained in RPMI 1640 media (Gibco catalog number 11875-093) supplemented with 10% dialyzed fetal bovine serum using a humidified incubator (37° C., 5% CO2 and ambient O2). In preparation for the viability assay, cells were inoculated into 384-well black CulturPlates (Perkin Elmer) at a density of 1000 cells/well in a volume of 40 uL. Following a 24-hour incubation at 37° C., 5% CO2 and ambient O2, cells were treated with compound (10 uL) in a final DMSO concentration of 0.5% (v/v). The microplates were then incubated for 72 hours (37° C., 5% CO2 and ambient O2). Cell Titer Fluor (Promega) was subsequently added (10 uL of 6× reagent) and mixed for 15 minutes at room temperature. The plates were then incubated for 30 minutes (37° C., 5% CO2 and ambient O2) and fluorescence was subsequently read on the Perkin Elmer Envision plate reader. EC50 values were calculated using a four-parameter logistic curve fit.

[1] = biological target: T1, GLS1 (purified recombinant human GAC) (Homo sapiens, UniProt O94925); assay: GLS1 enzymatic activity assay (dual-coupled, Amplex UltraRed/resorufin); type: biochemical
T1 sequence (O94925 55-598 isoform O94925-3 limits assumed): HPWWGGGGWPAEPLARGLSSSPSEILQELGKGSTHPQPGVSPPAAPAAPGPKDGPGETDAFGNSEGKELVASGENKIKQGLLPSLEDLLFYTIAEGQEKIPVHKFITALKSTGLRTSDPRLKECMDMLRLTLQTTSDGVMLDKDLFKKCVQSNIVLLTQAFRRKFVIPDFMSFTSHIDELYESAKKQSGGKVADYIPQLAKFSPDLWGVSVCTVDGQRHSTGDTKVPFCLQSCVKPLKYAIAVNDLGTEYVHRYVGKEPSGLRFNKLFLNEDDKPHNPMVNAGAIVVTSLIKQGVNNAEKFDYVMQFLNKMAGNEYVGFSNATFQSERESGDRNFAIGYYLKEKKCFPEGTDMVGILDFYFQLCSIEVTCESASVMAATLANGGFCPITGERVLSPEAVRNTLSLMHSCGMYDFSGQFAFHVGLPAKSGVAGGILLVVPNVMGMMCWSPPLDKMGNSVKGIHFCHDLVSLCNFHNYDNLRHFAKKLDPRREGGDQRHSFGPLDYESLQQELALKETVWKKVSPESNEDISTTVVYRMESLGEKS
Protocol: GLS1 Enzymatic Activity Assay
The inhibition of purified recombinant human GAC by varying concentrations of inhibitors is assessed via a dual-coupled enzymatic assay. The glutamate produced by the glutaminase reaction is used by glutamate oxidase to produce α-ketoglutarate, ammonia, and hydrogen peroxide, with this hydrogen peroxide subsequently being used by horseradish peroxidase to produce resorufin in the presence of Amplex UltraRed. The assay buffer consisted of 50 mM Hepes (pH 7.4), 0.25 mM EDTA and 0.1 mM Triton X-100. GAC was incubated with potassium phosphate (10 minutes at room temperature) prior to incubation with inhibitor (10 minutes at room temperature). The final reaction conditions were as follows: 2 nM GAC, 50 mM potassium phosphate, 100 mU/mL glutamate oxidase (Sigma), 1 mM glutamine (Sigma), 100 mU/mL horseradish peroxidase (Sigma), 75 μM Amplex UltraRed (Life Technologies), and 1% (v/v) DMSO. The production of resorufin was monitored on a Perkin Elmer Envision plate reader (excitation 530 nm, emission 590 nm) either in a kinetics or endpoint mode (at 20 minutes). IC50 values were calculated using a four-parameter logistic curve fit.

| EC50 (A549 cells) | IC50 [1] | Structure (SMILES) |
| --- | --- | --- |
| < 100 nM | < 100 nM | O=C(Nc1ccn(CCC(F)Cn2cc(C(=O)NCc3cc(OC(F)(F)F)ccc3F)nn2)c(=O)c1F)C(=O)N1CCC[C@H](C(F)(F)F)C1 (mixture of isomers) [Example 435] |
| < 100 nM | < 100 nM | CC(=O)OC(C(=O)Nc1ccn(CC[C@@H](F)Cn2cc(C(=O)NCc3cccc(OC(F)(F)F)c3)nn2)c(=O)c1F)c1ccccc1 (stereo in doubt) [Example 306, (R)-[(3-fluoro-1-{3-fluoro-4-[4-({[3-(trifluoromethoxy)phenyl]methyl}carbamoyl)-1H-1,2,3-triazol-1-yl]butyl}-2-oxo-1,2-dihydropyridin-4-yl)carbamoyl](phenyl)methyl acetate] |
| 500 to 5000 nM | < 100 nM | O=C(Cc1ccccc1)Nc1ccn(CCCCc2nnc(NC(=O)Cc3ccccn3)s2)c(=O)c1 [Example 1, N-(2-oxo-1-(4-(5-(2-(pyridin-2-yl)acetamido)-1,3,4-thiadiazol-2-yl)butyl)-1,2-dihydropyridin-4-yl)-2-phenylacetamide] |
| 500 to 5000 nM | 100 to 500 nM | O=C(Cc1ccccc1)Nc1ccn(CCCCn2cc(C(=O)NCc3ccccc3)nn2)c(=O)c1 [Example 2, N-benzyl-1-(4-(2-oxo-4-(2-phenylacetamido)pyridin-1(2H)-yl)butyl)-1H-1,2,3-triazole-4-carboxamide] |
| 100 to 500 nM | < 100 nM | CC(C)(C)OC(=O)Nc1ccn(CCCCn2cc(C(=O)NCc3cccc(OC(F)(F)F)c3)nn2)c(=O)c1 [Example 3, Tert-butyl(2-oxo-1-(4-(4-((3-(trifluoromethoxy)benzyl)carbamoyl)-1H-1,2,3-triazol-1-yl)butyl)-1,2-dihydropyridin-4-yl)carbamate] |
| > 5000 nM | 500 to 5000 nM | Nc1ccn(CCCCn2cc(C(=O)NCc3cccc(OC(F)(F)F)c3)nn2)c(=O)c1 [Example 4, 1-(4-(4-Amino-2-oxopyridin-1(2H)-yl)butyl)-N-(3-(trifluoromethoxy)benzyl)-1H-1,2,3-triazole-4-carboxamide] |
| 100 to 500 nM | < 100 nM | CC(C)CC(=O)Nc1ccn(CCCCn2cc(C(=O)NCc3cccc(OC(F)(F)F)c3)nn2)c(=O)c1 [Example 5, 1-(4-(4-(3-methylbutanamido)-2-oxopyridin-1(2H)-yl)butyl)-N-(3-(trifluoromethoxy)benzyl)-1H-1,2,3-triazole-4-carboxamide] |
| 500 to 5000 nM | < 100 nM | O=C(Cc1ccccn1)Nc1ccn(CCCCn2cc(C(=O)NCc3cccc(OC(F)(F)F)c3)nn2)c(=O)c1 [Example 6, 1-(4-(2-oxo-4-(2-(pyridin-2-yl)acetamido)pyridin-1 (2H)-yl)butyl)-N-(3-(trifluoromethoxy)benzyl)-1H-1,2,3-triazole-4-carboxamide] |
| 100 to 500 nM | < 100 nM | CC(C)COC(=O)Nc1ccn(CCCCn2cc(C(=O)NCc3cccc(OC(F)(F)F)c3)nn2)c(=O)c1 [Example 7, Isobutyl(2-oxo-1-(4-(4-((3-(trifluoromethoxy)benzyl)carbamoyl)-1H-1,2,3-triazol-1-yl)butyl)-1,2-dihydropyridin-4-yl)carbamate] |
| 100 to 500 nM | < 100 nM | O=C(NCc1ccccc1)c1ccn(CCCCn2cc(C(=O)NCc3cccc(OC(F)(F)F)c3)nn2)c(=O)c1 [Example 8, N-Benzyl-2-oxo-1-(4-(4-((3-(trifluoromethoxy)benzyl)carbamoyl)-1H-1,2,3-triazol-1-yl)butyl)-1,2-dihydropyridine-4-carboxamide] |
| 500 to 5000 nM | < 100 nM | O=C(Cc1cccc(OC(F)(F)F)c1)Nc1ccn(CCCCn2cc(C(=O)NCc3ccccn3)nn2)c(=O)c1 [Example 10, 1-(4-(2-oxo-4-(2-(3-(trifluoromethoxy)phenyl)acetamido)pyridin-1(2H)-yl)butyl)-N-(pyridin-2-ylmethyl)-1H-1,2,3-triazole-4-carboxamide] |
